Test results as given in ChEMBL document CHEMBL3734673, “Potent chemical chaperone compounds for GM1-gangliosidosis: N-substituted (+)-conduramine F-4 derivatives” (Medchemcomm, 2015).
Substitutions are numbered along the chain they refer to. The source made the active and inactive calls. No cut-off for these calls is given here.

Assays:
[1] = system: T1, Beta-galactosidase (Homo sapiens), P16278 [R201C]; assay: Activation of human beta-galactosidase R201C mutant expressed in mouse fibroblasts using 4-methylumbelliferone -conugated beta-D-galactoside as substrate at 20 uM preincubated for 48 hrs followed by substrate addition measured after 30 mins by fluorescence analysis relative to control
T1 sequence (whole entry): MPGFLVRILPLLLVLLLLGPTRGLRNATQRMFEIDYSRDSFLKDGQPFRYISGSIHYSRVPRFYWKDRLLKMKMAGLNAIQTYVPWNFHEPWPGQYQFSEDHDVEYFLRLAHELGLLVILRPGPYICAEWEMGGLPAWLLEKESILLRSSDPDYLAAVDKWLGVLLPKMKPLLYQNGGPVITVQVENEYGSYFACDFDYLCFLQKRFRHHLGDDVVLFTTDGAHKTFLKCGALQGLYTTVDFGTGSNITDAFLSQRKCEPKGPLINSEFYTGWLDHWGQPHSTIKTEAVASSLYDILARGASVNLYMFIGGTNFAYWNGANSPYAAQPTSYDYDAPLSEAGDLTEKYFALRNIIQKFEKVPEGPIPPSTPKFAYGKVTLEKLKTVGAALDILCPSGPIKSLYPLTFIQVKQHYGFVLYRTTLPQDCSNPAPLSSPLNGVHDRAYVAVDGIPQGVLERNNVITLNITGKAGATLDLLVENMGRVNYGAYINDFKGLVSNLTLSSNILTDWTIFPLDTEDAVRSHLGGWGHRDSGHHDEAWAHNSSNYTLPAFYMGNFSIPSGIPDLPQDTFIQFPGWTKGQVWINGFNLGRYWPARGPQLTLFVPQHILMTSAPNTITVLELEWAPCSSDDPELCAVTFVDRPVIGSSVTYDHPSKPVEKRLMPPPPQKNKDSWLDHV

Beta-galactosidase = target: T2, Beta-galactosidase (Homo sapiens, UniProt P16278); assay: Inhibition of human beta-galactosidase expressed in mouse fibroblasts using 4-methylumbelliferone -conugated beta-D-galactoside as substrate incubated for 30 mins at pH 4.5 followed by substrate addition by fluorescence analysis
T2 sequence (P16278 whole entry): T1 sequence (whole entry) with C201R

[2] = target: T3, Lysosomal acid glucosylceramidase (Homo sapiens, UniProt P04062); assay: Inhibition of human beta-glucosidase isolated from human fibroblasts incubated for 30 mins using […] analysis
T3 sequence (P04062 whole entry): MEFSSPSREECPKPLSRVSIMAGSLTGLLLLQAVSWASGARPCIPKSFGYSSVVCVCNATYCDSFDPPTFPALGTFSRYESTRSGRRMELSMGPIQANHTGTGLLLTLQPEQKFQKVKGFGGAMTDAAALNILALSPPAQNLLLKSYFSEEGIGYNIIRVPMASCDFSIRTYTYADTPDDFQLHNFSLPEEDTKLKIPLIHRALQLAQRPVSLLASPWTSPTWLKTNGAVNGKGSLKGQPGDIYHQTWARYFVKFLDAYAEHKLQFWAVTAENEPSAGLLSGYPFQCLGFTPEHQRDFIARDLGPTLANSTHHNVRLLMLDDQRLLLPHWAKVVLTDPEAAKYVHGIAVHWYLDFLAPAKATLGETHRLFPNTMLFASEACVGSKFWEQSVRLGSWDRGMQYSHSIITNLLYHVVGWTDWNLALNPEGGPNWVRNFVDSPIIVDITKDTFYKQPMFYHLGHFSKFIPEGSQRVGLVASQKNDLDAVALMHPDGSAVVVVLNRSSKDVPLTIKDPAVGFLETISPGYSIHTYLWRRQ

[3] = Inhibition of human alpha-galactosidase isolated from human fibroblasts incubated for 30 mins using […] analysis
[4] = Cytotoxicity against human fibroblasts at 200 uM by LDH assay; assay type: cell-based; settings: fibroblast
Prunus dulcis = assay: Inhibition of almond beta-glucosidase using p-nitrophenyl-beta-D-glucopyranoside as substrate preincubated with substrate followed by protein addition measured after 30 mins by microplate reader analysis
[5] = target: T4, Beta-galactosidase (Bos taurus) (UniProt Q58D55); assay: Inhibition of bovine liver beta-galactosidase using p-nitrophenyl-beta-D-galactopyranoside as substrate preincubated with substrate followed by protein addition measured after 30 mins by microplate reader analysis
T4 sequence (whole entry): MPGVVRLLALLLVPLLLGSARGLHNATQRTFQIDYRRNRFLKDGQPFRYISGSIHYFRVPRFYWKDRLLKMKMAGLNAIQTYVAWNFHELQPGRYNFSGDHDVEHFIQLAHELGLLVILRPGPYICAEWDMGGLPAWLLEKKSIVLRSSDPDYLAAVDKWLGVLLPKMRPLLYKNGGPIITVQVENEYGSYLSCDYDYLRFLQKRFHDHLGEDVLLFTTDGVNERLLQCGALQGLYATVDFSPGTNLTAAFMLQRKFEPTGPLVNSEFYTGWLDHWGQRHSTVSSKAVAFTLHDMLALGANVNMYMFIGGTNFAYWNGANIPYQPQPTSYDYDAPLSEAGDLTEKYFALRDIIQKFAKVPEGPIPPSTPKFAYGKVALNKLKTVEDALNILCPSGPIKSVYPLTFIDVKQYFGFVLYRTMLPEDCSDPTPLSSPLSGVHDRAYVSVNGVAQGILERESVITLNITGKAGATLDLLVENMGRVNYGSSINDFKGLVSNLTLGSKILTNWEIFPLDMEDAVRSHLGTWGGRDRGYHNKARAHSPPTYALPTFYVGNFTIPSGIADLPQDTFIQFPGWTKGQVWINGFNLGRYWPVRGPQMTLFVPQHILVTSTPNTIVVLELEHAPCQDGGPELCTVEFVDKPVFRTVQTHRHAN

[6] = Cytotoxicity against human fibroblasts at 20 uM by LDH assay; assay type: cell-based; settings: fibroblast
[7] = system: T1, Beta-galactosidase (Homo sapiens), P16278 [R201C]; assay: Activation of human beta-galactosidase R201C mutant expressed in mouse fibroblasts using 4-methylumbelliferone -conugated beta-D-galactoside as substrate at 2 uM preincubated for 48 hrs followed by substrate addition measured after 30 mins by fluorescence analysis relative to control
[8] = system: T1, Beta-galactosidase (Homo sapiens), P16278 [R201C]; assay: Activation of human beta-galactosidase R201C mutant expressed in mouse fibroblasts using 4-methylumbelliferone -conugated beta-D-galactoside as substrate at 0.2 uM preincubated for 48 hrs followed by substrate addition measured after 30 mins by fluorescence analysis relative to control

Row | Structure (SMILES) | fold change (FC) [1] | IC50 (Beta-galactosidase) [mM] | IC50 [2] [mM] | IC50 [3] [mM] | Activity [4] [%] | inhibition (Prunus dulcis) | inhibition [5] | Activity [6] [%] | fold change (FC) [7] | Activity [7] | Activity [8]
1 | Cl.O[C@@H]1[C@@H](O)[C@H](NCc2ccccc2)C=C[C@@H]1O | 1.5 | 0.18 | > 1 | > 1 | < 10 | Active | Active |  |  |  | 
2 | Cl.O[C@@H]1[C@@H](O)[C@H](NCC2CCCCC2)C=C[C@@H]1O | 8.5 | 0.06 | > 1 | > 1 | 3.8 | Active | Active | 0.7 |  |  | 
3 | CCC(CC)CN[C@@H]1C=C[C@H](O)[C@H](O)[C@H]1O.Cl | 7.4 | 0.015 | > 1 | > 1 | < 10 | Active | Active |  |  |  | 
4 | CCCCCCCCCCN[C@@H]1C=C[C@H](O)[C@H](O)[C@H]1O.Cl | 1.6 | 0.043 | > 1 | > 1 | 54 | Active | Active | 24 |  |  | 
5 | Cl.O[C@@H]1[C@@H](O)[C@H](NC2CCCCC2)C=C[C@@H]1O | 1.4 | 0.49 | > 1 | > 1 | < 10 | Active | Active |  |  |  | 
6 | Cl.O[C@@H]1[C@@H](O)[C@H](NCCc2ccccc2)C=C[C@@H]1O | 4.2 | 0.086 | > 1 | > 1 | < 10 | Active | Active |  |  |  | 
7 | CC(C)CN[C@@H]1C=C[C@H](O)[C@H](O)[C@H]1O.Cl | 4.6 | 0.041 | > 1 | > 1 | < 10 | Active | Active |  |  |  | 
8 | CCCCCCCCN[C@@H]1C=C(CO)[C@H](O)[C@H](O)[C@H]1O.Cl | 3.6 | 0.0017 | > 1 | > 1 | 7.5 |  |  | 1.1 | 4.6 |  | 
9 | CCCCCN[C@@H]1C=C[C@H](O)[C@H](O)[C@H]1O.Cl | 4 | 0.019 | > 1 | > 1 | < 10 | Active | Active |  |  |  | 
10 | CCCCCCCCN[C@@H]1C=C(C)[C@H](O)[C@H](O)[C@H]1O | 5.2 | 0.046 | > 1 | > 1 |  |  |  |  |  | Active | Active
11 | CCCCCCN[C@@H]1C=C[C@H](O)[C@H](O)[C@H]1O.Cl | 4.6 | 0.056 | > 1 | > 1 | < 10 | Active | Active |  |  |  | 
12 | CC(C)CCN[C@@H]1C=C[C@H](O)[C@H](O)[C@H]1O.Cl | 4.6 | 0.028 | > 1 | > 1 | < 10 | Active | Active |  |  |  | 
13 | CCCCCCCCN[C@@H]1C=C[C@H](O)[C@H](O)[C@H]1O.Cl | 5.4 | 0.12 | > 1 | > 1 | 25 | Active | Active |  |  | Active | Active
14 | CCCCN[C@@H]1C=C[C@H](O)[C@H](O)[C@H]1O.Cl | 2 | 0.05 | > 1 | > 1 | < 10 | Active | Active |  |  |  | 
15 | Cl.OCCCN[C@@H]1C=C[C@H](O)[C@H](O)[C@H]1O | 0.9 | > 1 | > 1 | > 1 | < 10 | Active | Active |  |  |  | 
16 | CCC(CC)N[C@@H]1C=C[C@H](O)[C@H](O)[C@H]1O.Cl | 1.2 | > 1 | > 1 | > 1 | < 10 | Active | Active |  |  |  | 
